{"source": "ChEMBL document CHEMBL5465560", "about": "“Selectivity Literature for EUbOPEN Chemogenomic Library” (2024)", "key": {"[1]": {"biological_target": "Cyclin-dependent kinase 9 (Homo sapiens, UniProt P50750)", "sequence (P50750 whole entry)": "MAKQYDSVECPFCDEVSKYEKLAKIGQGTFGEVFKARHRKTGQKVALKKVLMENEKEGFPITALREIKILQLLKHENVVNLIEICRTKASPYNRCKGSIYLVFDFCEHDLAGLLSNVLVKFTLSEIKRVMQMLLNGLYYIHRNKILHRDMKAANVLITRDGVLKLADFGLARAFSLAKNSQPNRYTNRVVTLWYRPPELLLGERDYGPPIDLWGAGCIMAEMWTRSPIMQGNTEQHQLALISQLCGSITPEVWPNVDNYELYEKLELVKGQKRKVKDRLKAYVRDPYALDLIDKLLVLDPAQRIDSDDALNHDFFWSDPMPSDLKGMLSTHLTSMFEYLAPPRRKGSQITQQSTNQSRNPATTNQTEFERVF", "experiment": "Selectivity interaction (KinomeScan (DiscoverX)) EUB0000666a CDK9", "conditions": "at 10 µM"}, "[2]": {"biological_target": "T1, Serine/threonine-protein kinase D2 (Homo sapiens) (UniProt Q9BZL6)", "T1 sequence (whole entry)": "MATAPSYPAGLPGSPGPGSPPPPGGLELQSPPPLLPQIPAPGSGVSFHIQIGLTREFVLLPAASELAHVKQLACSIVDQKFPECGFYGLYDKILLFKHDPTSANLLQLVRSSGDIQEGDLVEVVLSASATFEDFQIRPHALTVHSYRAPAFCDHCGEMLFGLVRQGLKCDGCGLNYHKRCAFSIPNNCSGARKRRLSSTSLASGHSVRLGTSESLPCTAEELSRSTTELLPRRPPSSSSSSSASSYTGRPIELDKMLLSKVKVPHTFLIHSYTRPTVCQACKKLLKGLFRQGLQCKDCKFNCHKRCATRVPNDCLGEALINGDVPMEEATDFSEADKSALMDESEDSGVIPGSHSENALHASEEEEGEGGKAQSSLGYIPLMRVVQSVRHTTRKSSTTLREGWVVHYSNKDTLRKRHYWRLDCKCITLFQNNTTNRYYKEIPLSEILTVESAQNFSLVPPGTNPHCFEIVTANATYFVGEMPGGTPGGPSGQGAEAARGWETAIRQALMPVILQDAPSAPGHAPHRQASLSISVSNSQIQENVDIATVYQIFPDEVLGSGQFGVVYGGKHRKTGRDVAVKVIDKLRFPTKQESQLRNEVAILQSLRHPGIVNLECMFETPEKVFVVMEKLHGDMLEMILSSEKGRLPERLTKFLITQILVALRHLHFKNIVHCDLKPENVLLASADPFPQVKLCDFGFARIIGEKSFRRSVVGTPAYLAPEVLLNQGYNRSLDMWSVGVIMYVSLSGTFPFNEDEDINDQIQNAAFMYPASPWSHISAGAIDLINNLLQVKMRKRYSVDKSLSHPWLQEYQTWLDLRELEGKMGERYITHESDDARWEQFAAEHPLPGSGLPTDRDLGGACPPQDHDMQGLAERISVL", "experiment": "Selectivity interaction (KinomeScan (DiscoverX)) EUB0001079a PRKD2", "conditions": "at 1 µM"}, "[3]": {"biological_target": "Ribosomal protein S6 kinase alpha-3 (Homo sapiens, UniProt P51812)", "sequence (P51812 whole entry)": "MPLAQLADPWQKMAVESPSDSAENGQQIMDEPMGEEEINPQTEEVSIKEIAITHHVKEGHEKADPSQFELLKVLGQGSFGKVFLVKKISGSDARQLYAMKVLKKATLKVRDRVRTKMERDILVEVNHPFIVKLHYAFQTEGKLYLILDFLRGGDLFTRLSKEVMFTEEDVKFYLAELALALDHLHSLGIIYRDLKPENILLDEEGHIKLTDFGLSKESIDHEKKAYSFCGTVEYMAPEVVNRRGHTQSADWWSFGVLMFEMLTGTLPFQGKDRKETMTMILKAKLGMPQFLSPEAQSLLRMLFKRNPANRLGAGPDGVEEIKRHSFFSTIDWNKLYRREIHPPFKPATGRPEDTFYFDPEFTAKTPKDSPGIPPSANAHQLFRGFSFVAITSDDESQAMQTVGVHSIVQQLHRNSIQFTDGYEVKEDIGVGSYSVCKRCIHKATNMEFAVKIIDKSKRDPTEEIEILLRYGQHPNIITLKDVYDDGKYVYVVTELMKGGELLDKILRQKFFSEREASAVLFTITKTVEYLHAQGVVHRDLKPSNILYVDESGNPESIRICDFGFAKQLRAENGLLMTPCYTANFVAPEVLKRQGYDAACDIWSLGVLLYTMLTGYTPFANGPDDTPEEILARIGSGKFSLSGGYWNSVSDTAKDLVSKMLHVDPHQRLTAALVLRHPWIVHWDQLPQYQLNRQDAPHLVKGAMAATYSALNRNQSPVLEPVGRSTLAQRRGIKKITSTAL", "experiment": "Selectivity interaction (Kinase panel (KiNativ target engagement assay in Jurkat cells)) EUB0001635a RPS6KA3", "type": "cell-based", "conditions": "Selectivity number of off-targets 0.0, Selectivity number of targets 233.0, Source Knowledge https://www.sciencedirect.com/science/article/pii/S2451945619300674?via%3Dihub, at 1 µM"}, "[4]": {"biological_target": "Histone-lysine N-methyltransferase 2C (Homo sapiens) (UniProt Q8NEZ4)", "experiment": "Selectivity interaction (Transferase panel (protein, RNA, and DNA methyltransferases. and EP300 (acetyltransferase))) EUB0000270b MLL3", "conditions": "at 10 µM"}, "[5]": {"biological_target": "MAP/microtubule affinity-regulating kinase 3 (Homo sapiens) (UniProt P27448)", "sequence (P27448 whole entry, looked up)": "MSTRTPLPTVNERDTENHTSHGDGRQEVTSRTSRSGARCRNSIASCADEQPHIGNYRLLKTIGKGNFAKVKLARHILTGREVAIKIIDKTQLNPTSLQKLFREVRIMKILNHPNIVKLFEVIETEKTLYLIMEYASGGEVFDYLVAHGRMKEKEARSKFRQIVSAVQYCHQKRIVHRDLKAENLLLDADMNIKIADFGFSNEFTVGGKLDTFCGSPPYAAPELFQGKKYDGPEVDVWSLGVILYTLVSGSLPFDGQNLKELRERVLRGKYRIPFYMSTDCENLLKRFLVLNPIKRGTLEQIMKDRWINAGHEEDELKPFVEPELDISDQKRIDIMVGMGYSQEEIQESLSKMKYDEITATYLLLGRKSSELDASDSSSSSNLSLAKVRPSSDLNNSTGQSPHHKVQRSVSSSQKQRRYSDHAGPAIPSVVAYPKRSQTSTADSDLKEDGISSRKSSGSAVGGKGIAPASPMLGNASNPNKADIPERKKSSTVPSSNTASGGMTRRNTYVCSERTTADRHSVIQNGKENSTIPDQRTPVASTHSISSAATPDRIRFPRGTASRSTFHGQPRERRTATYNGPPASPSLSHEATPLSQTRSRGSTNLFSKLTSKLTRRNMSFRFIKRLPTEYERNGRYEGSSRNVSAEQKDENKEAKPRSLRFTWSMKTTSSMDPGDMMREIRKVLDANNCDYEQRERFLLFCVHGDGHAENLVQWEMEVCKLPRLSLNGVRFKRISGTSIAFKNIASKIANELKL", "experiment": "Selectivity interaction (ActivX KiNativ screen (kinase selectivity in THP-1 cell lysates)) EUB0000639a MARK3", "type": "subcellular", "conditions": "lysate, at 0.2 µM"}, "[6]": {"biological_target": "Tyrosine-protein kinase JAK1 (Homo sapiens, UniProt P23458)", "sequence (P23458 whole entry)": "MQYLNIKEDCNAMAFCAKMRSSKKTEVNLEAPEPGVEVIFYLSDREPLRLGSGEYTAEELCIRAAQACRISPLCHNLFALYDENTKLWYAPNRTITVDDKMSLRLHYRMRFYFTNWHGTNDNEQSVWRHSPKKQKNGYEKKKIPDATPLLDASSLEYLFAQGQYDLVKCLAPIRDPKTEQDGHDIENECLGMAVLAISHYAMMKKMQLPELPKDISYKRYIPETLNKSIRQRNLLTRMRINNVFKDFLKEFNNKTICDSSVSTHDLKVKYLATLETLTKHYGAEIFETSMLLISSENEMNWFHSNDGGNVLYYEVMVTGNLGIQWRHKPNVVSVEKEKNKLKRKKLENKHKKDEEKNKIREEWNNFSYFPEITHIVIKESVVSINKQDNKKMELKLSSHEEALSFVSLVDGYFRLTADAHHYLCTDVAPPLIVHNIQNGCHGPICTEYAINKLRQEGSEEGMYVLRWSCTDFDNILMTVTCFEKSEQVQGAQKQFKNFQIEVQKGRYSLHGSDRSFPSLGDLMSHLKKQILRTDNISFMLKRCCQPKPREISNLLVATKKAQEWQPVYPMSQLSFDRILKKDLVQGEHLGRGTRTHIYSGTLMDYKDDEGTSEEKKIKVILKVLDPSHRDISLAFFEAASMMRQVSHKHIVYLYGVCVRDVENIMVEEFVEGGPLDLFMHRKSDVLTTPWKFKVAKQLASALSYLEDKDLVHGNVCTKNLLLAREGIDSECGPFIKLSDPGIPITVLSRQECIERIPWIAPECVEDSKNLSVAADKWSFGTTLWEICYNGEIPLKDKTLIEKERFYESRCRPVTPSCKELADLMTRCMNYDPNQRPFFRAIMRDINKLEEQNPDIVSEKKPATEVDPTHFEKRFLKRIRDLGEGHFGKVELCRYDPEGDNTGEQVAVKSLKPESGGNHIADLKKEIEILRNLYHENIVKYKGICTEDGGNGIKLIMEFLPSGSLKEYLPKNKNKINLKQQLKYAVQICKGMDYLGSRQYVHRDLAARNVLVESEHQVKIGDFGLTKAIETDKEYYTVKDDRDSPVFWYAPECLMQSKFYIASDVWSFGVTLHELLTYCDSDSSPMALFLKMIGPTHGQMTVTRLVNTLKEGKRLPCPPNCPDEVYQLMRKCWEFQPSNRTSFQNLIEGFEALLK", "experiment": "Selectivity interaction (ActivX KiNativ screen (kinase selectivity in THP-1 cell lysates)) EUB0000639a JAK1", "type": "subcellular", "conditions": "lysate, at 0.01 µM"}, "[7]": {"biological_target": "T2, Tyrosine-protein kinase Tec (Homo sapiens) (UniProt P42680)", "T2 sequence (whole entry)": "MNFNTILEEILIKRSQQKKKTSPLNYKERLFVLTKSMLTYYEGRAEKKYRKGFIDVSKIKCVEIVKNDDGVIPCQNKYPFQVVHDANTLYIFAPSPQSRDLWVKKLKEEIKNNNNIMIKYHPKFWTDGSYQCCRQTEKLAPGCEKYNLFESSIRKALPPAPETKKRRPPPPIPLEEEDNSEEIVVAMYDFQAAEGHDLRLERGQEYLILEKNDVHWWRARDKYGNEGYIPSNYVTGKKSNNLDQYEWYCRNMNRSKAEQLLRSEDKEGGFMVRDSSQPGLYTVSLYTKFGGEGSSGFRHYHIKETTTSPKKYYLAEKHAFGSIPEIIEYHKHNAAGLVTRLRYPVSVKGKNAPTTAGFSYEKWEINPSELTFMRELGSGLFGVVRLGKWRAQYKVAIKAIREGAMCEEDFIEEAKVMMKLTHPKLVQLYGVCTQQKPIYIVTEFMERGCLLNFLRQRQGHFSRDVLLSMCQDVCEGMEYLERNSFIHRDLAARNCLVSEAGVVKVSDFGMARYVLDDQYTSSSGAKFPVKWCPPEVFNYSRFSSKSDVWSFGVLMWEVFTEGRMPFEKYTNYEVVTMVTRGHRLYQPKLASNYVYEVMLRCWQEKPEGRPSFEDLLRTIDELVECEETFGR", "experiment": "Selectivity interaction (ActivX KiNativ screen (kinase selectivity in THP-1 cell lysates)) EUB0000639a TEC", "type": "subcellular", "conditions": "lysate, at 5 µM"}, "[8]": {"biological_target": "Casein kinase I isoform gamma-3 (Homo sapiens) (UniProt Q9Y6M4)", "sequence (Q9Y6M4 whole entry, looked up, canonical isoform)": "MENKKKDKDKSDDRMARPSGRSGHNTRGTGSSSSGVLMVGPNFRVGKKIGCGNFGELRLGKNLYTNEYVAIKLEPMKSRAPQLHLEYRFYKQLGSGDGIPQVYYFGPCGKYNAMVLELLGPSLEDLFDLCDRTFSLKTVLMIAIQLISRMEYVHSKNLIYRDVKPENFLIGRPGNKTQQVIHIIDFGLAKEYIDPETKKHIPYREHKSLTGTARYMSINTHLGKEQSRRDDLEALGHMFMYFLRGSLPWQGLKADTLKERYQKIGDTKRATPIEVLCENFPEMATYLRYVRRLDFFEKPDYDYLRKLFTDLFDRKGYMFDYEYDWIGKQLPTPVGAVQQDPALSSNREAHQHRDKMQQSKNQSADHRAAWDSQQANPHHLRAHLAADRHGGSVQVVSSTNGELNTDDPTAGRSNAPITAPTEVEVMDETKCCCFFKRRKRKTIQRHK", "experiment": "Selectivity interaction (Kinase panel (Invitrogen)) EUB0000639a CSNK1G3", "conditions": "at 200 nM"}, "[9]": {"biological_target": "Cyclin-dependent kinase 1/cyclin B (Homo sapiens) (UniProt P06493+P14635+Q8WWL7+O95067)", "experiment": "Selectivity interaction (Kinase panel (Invitrogen)) EUB0000639a CDK1", "type": "protein-complex assay", "conditions": "at 200 nM"}, "[10]": {"biological_target": "RAC-beta serine/threonine-protein kinase (Homo sapiens) (UniProt P31751)", "sequence (P31751 whole entry)": "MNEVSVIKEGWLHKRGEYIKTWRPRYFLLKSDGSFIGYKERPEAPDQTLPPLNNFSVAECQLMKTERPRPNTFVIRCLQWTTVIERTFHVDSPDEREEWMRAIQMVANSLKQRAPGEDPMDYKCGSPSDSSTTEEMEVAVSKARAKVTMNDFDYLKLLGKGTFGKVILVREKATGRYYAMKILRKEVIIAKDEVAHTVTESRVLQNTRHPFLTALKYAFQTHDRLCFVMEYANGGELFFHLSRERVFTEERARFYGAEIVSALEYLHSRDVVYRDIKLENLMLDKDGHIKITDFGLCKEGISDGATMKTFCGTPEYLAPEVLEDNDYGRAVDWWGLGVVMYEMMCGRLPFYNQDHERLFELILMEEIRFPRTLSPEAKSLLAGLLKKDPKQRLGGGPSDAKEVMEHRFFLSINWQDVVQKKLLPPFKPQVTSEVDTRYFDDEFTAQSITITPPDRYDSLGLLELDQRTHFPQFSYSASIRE", "experiment": "Selectivity interaction (KinomeScan (DiscoverX)) EUB0001619a AKT2", "conditions": "at 1 µM"}, "[11]": {"biological_target": "Cell division control protein 42 homolog (Homo sapiens) (UniProt P60953)", "sequence (P60953 whole entry, looked up)": "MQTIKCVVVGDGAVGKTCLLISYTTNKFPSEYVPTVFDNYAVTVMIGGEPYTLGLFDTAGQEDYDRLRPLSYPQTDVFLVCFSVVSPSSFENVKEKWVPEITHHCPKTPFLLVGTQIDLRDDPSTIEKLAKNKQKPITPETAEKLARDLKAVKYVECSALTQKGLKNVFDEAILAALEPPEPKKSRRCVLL", "experiment": "Selectivity interaction (SelectScreen profiling (Invitrogen)) EUB0000607a CDC42", "conditions": "at 2 µM"}, "[12]": {"biological_target": "Cyclin-dependent kinase 4/cyclin D1 (Homo sapiens) (UniProt P11802+P24385)", "experiment": "(§1) Selectivity interaction (Rxn Biology Kinase assay) EUB0001632a CDK4", "type": "protein-complex assay", "conditions": "at 10 µM"}, "[13]": {"biological_target": "CDK4/Cyclin D3 (Homo sapiens) (UniProt P11802+P30281)", "experiment": "as §1", "type": "protein-complex assay", "conditions": "at 10 µM"}, "[14]": {"biological_target": "Cyclin-dependent kinase 5/CDK5 activator 1 (Homo sapiens) (UniProt Q00535+Q15078)", "sequence (Q00535 whole entry)": "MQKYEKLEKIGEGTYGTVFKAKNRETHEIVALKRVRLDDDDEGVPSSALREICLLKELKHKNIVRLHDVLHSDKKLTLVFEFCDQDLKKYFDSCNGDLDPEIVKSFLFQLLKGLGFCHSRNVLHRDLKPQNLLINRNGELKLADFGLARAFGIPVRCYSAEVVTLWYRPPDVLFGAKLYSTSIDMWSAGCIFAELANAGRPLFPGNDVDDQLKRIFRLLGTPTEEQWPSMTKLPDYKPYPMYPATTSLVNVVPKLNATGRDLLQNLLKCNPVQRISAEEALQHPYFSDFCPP", "sequence (Q15078 99-307 partner limits assumed)": "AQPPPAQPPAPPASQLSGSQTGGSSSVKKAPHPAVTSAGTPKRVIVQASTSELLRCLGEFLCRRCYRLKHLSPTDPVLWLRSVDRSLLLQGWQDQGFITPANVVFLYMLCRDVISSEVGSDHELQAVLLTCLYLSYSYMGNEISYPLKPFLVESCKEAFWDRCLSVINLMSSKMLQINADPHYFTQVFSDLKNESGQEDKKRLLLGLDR", "experiment": "Selectivity interaction (ProQinase) EUB0000171b CDK5", "type": "protein-complex assay", "conditions": "at 5 µM"}}, "data": [{"compound": "O=C(NOC[C@H](O)CO)c1ccc(F)c(F)c1Nc1ccc(I)cc1F", "values": [{"measurement": "% of control", "setting": "[1]", "result": 76, "unit": "%"}]}, {"compound": "Nc1cnc(N2CCc3cc(S(=O)(=O)Nc4c(F)cc(Cl)cc4F)cc(N4CCCC4=O)c32)nc1", "note": "[TP-020n]", "values": [{"measurement": "% of control", "setting": "[2]", "result": 100, "unit": "%"}]}, {"compound": "C=CC(=O)Nc1ccc(C(=O)Nc2[nH]nc3c2CN(C(=O)N[C@H](CN(C)C)c2ccccc2)C3(C)C)cc1", "values": [{"measurement": "% of engagement", "setting": "[3]", "result": -18.2, "unit": "%"}]}, {"compound": "Cc1cc(CN)cc(C)c1-c1ncn(C)c1-c1cncn1C", "values": [{"measurement": "% activity", "setting": "[4]", "result": "> 80", "unit": "%"}]}, {"compound": "CC[C@@H]1[C@H](F)C(=O)N[C@@H]1COc1nccc2cc(C(N)=O)c(OC)cc12", "note": "[ZIMLOVISERTIB]", "values": [{"measurement": "% of inhibition", "setting": "[5]", "result": 2.7, "unit": "%"}, {"measurement": "% of inhibition", "setting": "[6]", "result": -2.1, "unit": "%"}, {"measurement": "% of inhibition", "setting": "[7]", "result": -18.7, "unit": "%"}, {"measurement": "% of inhibition", "setting": "[8]", "result": 62.9, "unit": "%"}, {"measurement": "% of inhibition", "setting": "[9]", "result": 11.5, "unit": "%"}]}, {"compound": "N#Cc1cccc(-c2c[nH]c3ncnc(N4CCOCC4)c23)c1", "values": [{"measurement": "% of control", "setting": "[10]", "result": 100, "unit": "%"}]}, {"compound": "CNC(=O)Nc1ccc(-c2nc(N3CC4CCC(C3)O4)c3cnn(C4CCC5(CC4)OCCO5)c3n2)cc1", "values": [{"measurement": "% of inhibition", "setting": "[11]", "result": 9, "unit": "%"}]}, {"compound": "Cn1cc(-n2cnc3c(NCc4nc5cc(Cl)c(Cl)cc5[nH]4)nc(N4CCOCC4)nc32)cn1", "values": [{"measurement": "% of inhibition", "setting": "[12]", "result": 46.7, "unit": "%"}, {"measurement": "% of inhibition", "setting": "[13]", "result": 46.3, "unit": "%"}]}, {"compound": "C=CC(=O)Nc1cccc(C(=O)Nc2ccc(Nc3cc(-c4[nH]c(SC)nc4C)ccn3)cc2)c1", "values": [{"measurement": "% of control", "setting": "[14]", "result": 36, "unit": "%"}]}]}
